From patent US10507211B2, “Treatment for hereditary neuropathy with liability to pressure palsies (HNPP)” (Vanderbilt University, priority 2016, dated 2019)
Marks after values point to notes of the source that are not given here.

Key:
[1] = test system: Pmp22+/− mice; assay: Mouse tolerance to PF3758309 (i.p. daily); format: in vivo
From the text: Pmp22+/− mice were backcrossed with C57Bl6J mice (Jackson Lab) for more than 10 generations to reach congenic. Mice were genotyped as described. The congenic Pmp22+/− mice have been extensively characterized.
For PAK1 inhibitor (PF3758309) injections, Pmp22+/− mice were randomized into vehicle and treated groups. Based on the power calculation of variations derived from mouse compound nerve action potentials, 7 mice for each group would have a 92% chance to detect a significant difference. PF-3758309 (Cat# CT-PF0375, ChemieTek) was dissolved in normal saline for intraperitoneal injection (i.p.) daily.

[2] = test system: MEK1; assay: Western blot of phosphorylated MEK1 (S298) in sciatic nerves of treated Pmp22+/− mice; format: in vivo, mouse; settings: 1 week old at start of injection; 0.25 mg/kg/day I.P.; 11 weeks; n = 8
From the text: Residues in other PAKs could be phosphorylated but cannot be substantiated due to the lack of specific antibodies.
Samples were homogenized for protein isolation.

[3] = test system: F-actin; assay: F-actin staining of teased nerve fibers with fluorescent phalloidin in treated Pmp22+/− mice; format: in vivo, mouse; settings: versus vehicle
Description: This method was modified from the published study. In brief, sciatic nerves were fixed, embedded in paraffin, and cut into 5 μm-thick slices. Sections were incubated overnight with primary antibodies at 4° C. After washing, sections were stained for 1 hour with secondary antibodies. The stained slides were examined under a Leica fluorescent microscope (Leica DM6000B). For teased nerve stains, sciatic nerves were fixed in 4% paraformaldehyde (PFA) overnight and teased into individual fibers on glass slides. […] For newly formed F-actin staining, as described, the existing F-actin in sciatic nerve explants was saturated with a cell-permeable actin-binding compound, jasplakinolide (Cat#420127, Millipore), at 1 μM in culture media. After washing with PBS, the explants were incubated in a drug-free media for 6 hours at 37° C. The explants were fixed in 4% PFA and teased for F-actin staining using fluorescent phalloidin (1:400, Cat# R415, Life Technologies).

[4] = test system: PAK1; assay: F-actin and phosphorylated PAK1 in Pak1+/+ and Pak1−/− primary Schwann cell culture; format: cell-based; settings: Pak1−/− Schwann cells; 9 μM for 12 hour
From the text: (§1) FIG. 8. […] The total actin and GAPDH were used as loading controls.

[5] = target: T1, PAK2 (Mus musculus, UniProt Q8CIN4); assay: Phosphorylated PAK2 (S20) in primary Schwann cell culture; format: cell-based; settings: Schwann cells; 9 μM for 12 hour
T1 construct: Pak1+/+ and Pak1−/− primary Schwann cell culture; endogenous in cells; host or cells: primary Schwann cells, Pak1+/+ and Pak1-/-
From the text: as §1

[6] = reference [23]; cited from earlier work
[7] = test system: Pmp22+/− mice; assay: Nerve conduction study (NCS) on sciatic nerves of treated Pmp22+/− mice; settings: for CV(m/s): 0.25 mg/kg/day I.P., n = 8
Description: (§2) Thus, Pmp22+/− mice were treated with 0.25, 0.5, 1.0 mg/kg PF3758309 or vehicle—saline (FIG. 7 and Table 1). […] Injection started at age of postnatal day 7.
In FIG. 7, Panel B, CMAP amplitudes were measured prior to the treatment.
NCS was previously described [8]. […] A skilled technician gets NCS done in each mouse within 6 minutes. […] CMAP was recorded from the intrinsic foot muscle using needle electrodes. Stimulation electrodes were positioned percutaneously at the sciatic notch and adjacent to the tibial nerve at the ankle. CMAP amplitudes were measured from baseline to the peak of negative deflection.

[8] = test system: Pmp22+/− mice; assay: Percentage of teased nerve fibers with tomacula in treated Pmp22+/− mice; settings: 0.25 mg/kg/day I.P.
From the text: (§3) Injection started at age of postnatal day 7. […] Using teased nerve fibers, the percentages of nerve fibers with tomacula, a key pathology of HNPP, was quantified, as described [8].
Another 14 Pmp22+/− mice (un-injected) were counted.

[9] = target: T2, PAK1 (Mus musculus, UniProt O88643); assay: Western blot of phosphorylated PAK1 (T212) in sciatic nerves of treated Pmp22+/− mice; settings: 0.25 mg/kg/day I.P., n = 8
Target sequence in this assay (O88643 whole entry): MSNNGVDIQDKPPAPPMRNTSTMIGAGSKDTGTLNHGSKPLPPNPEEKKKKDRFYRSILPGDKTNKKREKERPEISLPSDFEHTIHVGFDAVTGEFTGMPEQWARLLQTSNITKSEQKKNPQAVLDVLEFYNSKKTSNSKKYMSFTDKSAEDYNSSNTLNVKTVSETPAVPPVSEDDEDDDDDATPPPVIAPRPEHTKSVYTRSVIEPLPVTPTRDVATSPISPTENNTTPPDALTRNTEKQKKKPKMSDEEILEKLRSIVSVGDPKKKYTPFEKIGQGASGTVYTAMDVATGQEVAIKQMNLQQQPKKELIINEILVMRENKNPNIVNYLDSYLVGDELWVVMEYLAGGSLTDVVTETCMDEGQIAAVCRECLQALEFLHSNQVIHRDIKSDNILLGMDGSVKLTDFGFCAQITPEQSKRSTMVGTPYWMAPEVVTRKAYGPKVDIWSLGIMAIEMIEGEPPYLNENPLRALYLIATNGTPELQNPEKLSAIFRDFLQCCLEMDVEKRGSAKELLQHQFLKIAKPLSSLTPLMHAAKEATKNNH
Description: The specificity of total PAK1, S144, and T212 antibodies was verified using Pak1+/+ and Pak1−/− nerves.
as §3
Samples were homogenized for protein isolation. […] Samples were loaded into SDS-PAGE gels and transferred to a PVDF membrane. The membranes were blotted with 5% non-fat milk and incubated overnight at 4° C. with primary antibodies, and followed by secondary antibodies. The immune complexes were detected by the enhanced chemoilluminescence (Cat# NEL103001, Perkin Elmer). In some cases, the blots were stripped and re-probed with additional antibodies. Quantification of band intensity was performed by the ImageJ software (rsbweb.nih.gov/ij/).

[10] = test system: claudin-19; assay: Abnormal claudin-19 staining of paranodes and incisures (tight junctions) in treated Pmp22+/− mice; settings: 0.25 mg/kg/day I.P., n = 8
From the text: Paraffin sections of mouse sciatic nerves were stained with antibodies. Percentages of abnormal paranodes or incisures were manually counted [3]. An abnormal paranode or incisurae was defined as the staining was absent in more than a half of normally stained paranodal or incisure territory. […] White dots outline the margin of the nerve fiber, based on its phase-contrast image. […] As shown in Panel E of FIG. 2, teased sciatic nerve fibers of Pmp22+/+ mice at the 3 months of age were stained with antibodies against claudin-19 to show paranodes (quadrant E1) and incisures (arrowhead in quadrant E3).
as §2
In brief, sciatic nerves were fixed, embedded in paraffin, and cut into 5 μm-thick slices. Sections were incubated overnight with primary antibodies at 4° C. After washing, sections were stained for 1 hour with secondary antibodies. The stained slides were examined under a Leica fluorescent microscope (Leica DM6000B). For teased nerve stains, sciatic nerves were fixed in 4% paraformaldehyde (PFA) overnight and teased into individual fibers on glass slides. The slides were dried overnight, reacted with primary antibodies, and followed by secondary antibodies.

[11] = test system: Pmp22+/− mice; assay: Evaluation of myelin permeability with 3 kDa Dextran in sciatic nerve fascicles of treated Pmp22+/− mice; settings: 3-month-old Pmp22+/− mice; 0.25 mg/kg; versus vehicle; P<0.001
Description: With reference to Panel E of FIG. 7, sciatic nerve fascicles from 3-month-old Pmp22+/− mice were incubated with 3 kDa Dextran, as described [3], to evaluate the myelin permeability. Individual teased nerve fibers were imaged. Arrowheads point to the node of Ranvier. […] With reference to Panel F of FIG. 7, fluorescence intensity was quantified by placing a 2.5 μm×2.5 μm interest box 10 μm away from the middle point of the node of Ranvier.
In brief, 1 cm sciatic nerve fascicles were submerged in artificial CSF after epineurium removal and sealed at both ends with Vaseline. A 3 kDa Dextran of fluorescence (2 mg/ml, Cat# D3329, Life technologies) was added for one hour incubation at room temperature without oxygenation. After washing, the nerve fascicles were fixed in 4% PFA for 10 minutes and teased into individual nerve fibers on glass slides for fluorescence microscopy. Fluorescence intensity was quantified by placing a 5 μm×5 μm interest box 10 μm away from the middle point of the node of Ranvier.

[12] = target: T2, PAK1; assay: F-actin and phosphorylated PAK1 in Pak1+/+ and Pak1−/− primary Schwann cell culture; format: cell-based; set-up: Pak1+/+ and Pak1−/− primary Schwann cell culture; endogenous in cells; host or cells: primary Schwann cells, Pak1+/+ and Pak1-/-; settings: Pak1+/+ Schwann cells; 9 μM for 12 hour
From the text: as §1
Target sequence in this assay (O88643 2-545): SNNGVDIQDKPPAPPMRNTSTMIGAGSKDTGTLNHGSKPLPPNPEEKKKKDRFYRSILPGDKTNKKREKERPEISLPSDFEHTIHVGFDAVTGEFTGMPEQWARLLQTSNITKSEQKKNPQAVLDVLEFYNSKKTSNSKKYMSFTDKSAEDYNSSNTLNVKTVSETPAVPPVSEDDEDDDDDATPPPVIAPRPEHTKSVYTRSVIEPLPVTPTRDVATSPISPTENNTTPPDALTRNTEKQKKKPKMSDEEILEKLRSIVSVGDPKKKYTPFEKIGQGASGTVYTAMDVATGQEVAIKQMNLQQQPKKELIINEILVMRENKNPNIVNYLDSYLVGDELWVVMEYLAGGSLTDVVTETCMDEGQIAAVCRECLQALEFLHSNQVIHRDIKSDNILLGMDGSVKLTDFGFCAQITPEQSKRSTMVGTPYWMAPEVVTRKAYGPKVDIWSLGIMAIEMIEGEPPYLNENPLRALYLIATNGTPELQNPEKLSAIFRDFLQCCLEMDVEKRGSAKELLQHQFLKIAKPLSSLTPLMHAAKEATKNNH

[13] = 1 week old at start of injection, 11 weeks
[14] = 6-11 month age at start of injection, 4 weeks

T1 sequence (Q8CIN4 whole entry): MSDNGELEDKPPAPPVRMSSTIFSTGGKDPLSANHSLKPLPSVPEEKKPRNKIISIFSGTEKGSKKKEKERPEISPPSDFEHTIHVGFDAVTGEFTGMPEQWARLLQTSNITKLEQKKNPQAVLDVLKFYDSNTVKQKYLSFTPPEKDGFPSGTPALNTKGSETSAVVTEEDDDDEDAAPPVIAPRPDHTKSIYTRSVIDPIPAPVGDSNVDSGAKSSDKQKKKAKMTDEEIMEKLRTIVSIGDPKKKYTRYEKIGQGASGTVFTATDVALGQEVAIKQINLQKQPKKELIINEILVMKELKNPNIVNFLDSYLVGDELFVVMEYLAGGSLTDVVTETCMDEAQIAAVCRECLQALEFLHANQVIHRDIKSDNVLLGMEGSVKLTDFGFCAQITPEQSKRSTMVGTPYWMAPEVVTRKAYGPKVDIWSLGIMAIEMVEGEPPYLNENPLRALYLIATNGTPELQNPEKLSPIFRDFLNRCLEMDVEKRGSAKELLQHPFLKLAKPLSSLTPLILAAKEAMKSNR

Cc1nc(Nc2n[nH]c3c2CN(C(=O)N[C@H](CN(C)C)c2ccccc2)C3(C)C)c2sccc2n1 [PF-3758309]
mortality and side-effect ([1]; 0.25 mg/kg, treated for 11 weeks): no increase of mouse mortality and observable side-effect
mice killed ([1]; 2.5 mg/kg or 25 mg/kg i.p. daily, 20 Pmp22+/− mice, within 15 days): over 50%
body weight ([1]; 2.5 mg/kg or 25 mg/kg i.p. daily, within 15 days): drastic reduction of body weight
tolerance (body weight, death) ([1]; 0.25, 0.5, 1.0 mg/kg i.p. daily, 11 weeks): tolerated these doses well with no change of body weight or increase of death
Ratio (S298/MEK1) [2]: 0.39 ± 0.2
levels of F-actin ([3]; 0.25 mg/kg i.p. daily for 11 weeks, 3-month-old Pmp22+/− mice): suppressed
F-actin levels ([3]; mice enrolled at 6-11 months, 0.25 mg/kg): significantly lower
F-actin level [4]: failed to change
level of phosphorylated PAK2 (S20) [5]: inhibited
total PAK2 levels [5]: not altered
penetration into the nervous system [6]: penetrated into the nervous system
CMAP amplitude ([7]; 1.00 mg/kg i.p. daily for 11 weeks from postnatal day 7, eight 3-month-old Pmp22+/− mice (Pmp22+/+ 3.2±0.6 mV)): 1.5±0.8 mV
decline of CMAP amplitudes ([7]; 0.25, 0.5, 1.0 mg/kg i.p. daily for 11 weeks from postnatal day 7, versus vehicle): prevented the decline of CMAP amplitudes with all three dosages
CV(m/s) [7, 13]: 17.8 ± 3.0 m/s
CV(m/s) [7, 14]: 19.7 ± 11.1 m/s
decrease of CMAP amplitudes over the course of treatment ([7]; mice enrolled at 6-11 months, 0.25 mg/kg, vehicle fell from 1.6±0.7 mV to 0.7±0.2 mV): completely prevented
% Tomacula ([8]; 1 week old at start of injection, 11 weeks, n = 8): 27.3 ± 4.5%
% Tomacula +outlier ([8]; 6-11 month age at start of injection, 4 weeks, outlier included): 25.2 ± 7.5%
% Tomacula −outlier ([8]; 6-11 month age at start of injection, 4 weeks, outlier taken off): 22.8 ± 4.3 ^d %
Ratio (T212/PAK1) [9, 13]: 0.61 ± 0.0
Ratio (T212/PAK1) [9, 14]: 0.26 ± 0.1
% abnormal Claudin-19 (incisures) ([10]; incisures, 1 week old at start of injection, 11 weeks): 27.7 ± 4.6 ^b %
% abnormal Claudin-19 (paranodes) [10, 13]: 36.5 ± 18.4 ^a %
% abnormal Claudin-19 (paranodes) [10, 14]: 43.5 ± 13.3 ^a %
3 kDa Dextran fluorescence intensity (myelin permeability) [11]: significantly decreased
F-actin level [12]: hardly detectable
level of phosphorylated PAK1 (S144) [12]: suppressed
level of phosphorylated PAK1 (T212) [12]: suppressed
